Data set [1] concerns CHO cells. Briefly: CHO cell morphology and growth in the presence of EM. Type of data set: cell-based, Chinese hamster. The settings on record: EM 2 μg/ml.
Data set [2] relates to transrepressors MphR(A) or ET4 (MphR(A)-KRAB) / PETRON promoters. Briefly: Erythromycin-inducible EON system, SEAP assay in transiently cotransfected CHO-K1. Type of data set: cell-based. The following applies: for SEAP activity [U/L] +Erythromycin [2 μg/ml]: CHO-K1, 48 hrs, title: erythromycin (2 μg/ml). The text has this:
The classical ET/PETR system belongs to the “OFF” family of regulation concepts since gene expression is activated upon withdrawal of the regulating antibiotic. However, in some applications such as gene therapy and tissue engineering an “ON” system that is induced upon addition of macrolide antibiotics is more desirable. We therefore constructed a new MphR(A)-based binary EON system which consists of a PETRON promoter and a set of two different transrepressors. Two different PETRON promoters were constructed: PETRON4 consists of an ETR4 (four tandem repetitions of ETR, SEQ ID NO 26) placed downstream of the strong viral SV40 promoter. PETRON8 contains eight tandem repetitions (SEQ ID NO 27) of ETR instead of four.
Transrepressors such as ET4 (SEQ ID NO 10, example 1, FIG. 2), which consists of a protein fusion between MphR(A) and the KRAB silencing domain of the human kox-1 gene (Deuschle et al., 1995, Mol. Cell Biol. 15: 1907-1914) or MphR(A) alone, bind to ETR in front of PSV40 and block transcription of this promoter. Besides sterical transcription blocking, the silencing domain of ET4 can additionally downregulate PSV40 activity.
The ETR4 sequence (SEQ ID NO: 26) was excised from the WEBE Gene vector (custom synthesized by Operon Technologies Inc.) by SfuI and EcoRI and ligated into the corresponding sites of pMF208 (Fussenegger et al., 2000. supra) thus resulting in plasmid pWW55 (FIG. 7) containing the PSV40-ETR4-SEAP cassette. The combination of PSV40 and ETR4 is designated PETRON4. For construction of PETRON8, ETR4 was excised (PmeI/EcoRI) from pWW55 and cloned into pWW55 restricted with (EcoRV/EcoRI) thus resulting in SV40-ETR8-SEAP (pWW56).
ET4, the MphR(A)-KRAB fusion protein was constructed as described in example 1 (SEQ ID NO 10). For expression of MphR(A) pWW29 (SEQ ID NO 4) was used. The stop codon of the original MphR(A) has been mutated in order to allow fusion to the various transactivating and transrepressing domains. Because of the mutation of this stop codon the mphR(A) gene contained in pWW29 is terminated a few bp downstream at the next stop codon encountered in the vector sequence. However, the resulting MphR(A) protein preserves its role as transcriptional repressor in the EON configuration.
The regulation performance of PETRON4 (PSV40-ETR4-SEAP-pA; pWW55) and PETRON8 (PSV40-ETR8-SEAP-pA; pWW56) was assessed in CHO-K1 cells harboring the MphR(A) expression vector pWW29 (PEF1α-E-pA) (Table 7).

In data set [3] the test system is ET1/PETR3. The data set can be described thus: CFP expression in CHO cells infected with ET1-encoding lentivirus (pMF391) and transfected with pWW44. Type of data set: cell-based. The following applies: 2 μg/ml erythromycin.
The test system of data set [4] is ET1/PETR3. The data set can be described thus: Dose-response of EM-dependent SEAP expression in stable CHO-ET11-SEAP. Type of data set: cell-based, Chinese hamster ovary cells. The settings on record: 48 h. The method, then: The cell line CHO-ET1-SEAP1 was grown for 48 h at different EM concentrations (ng/ml). The relative SEAP production is shown over 5 orders of magnitude of EM concentration.
(§1) Chinese hamster ovary cells (CHO-K1, ATCC: CCL 61), and HeLa cells (ATCC: CRL-7923) as well as stable cell lines derived thereof were cultured as described before (Fussenegger et al., 1998, Nat. Biotechnol. 16,468-472) in the presence of appropriate antibiotics: G418 400 μg/ml; zeocin 100 μg/ml. Optimized CaPO4 protocols were used for high efficiency transient transfection of all cell lines (Fussenegger et al., 1998. Nat. Biotechnol. 16: 468-472). Transiently transfected cells were routinely analyzed after 48 h for CFP or SEAP expression using fluorescence microscopy and p-nitrophenolphosphate-based light absorbance timecourse, respectively, as described before (Fussenegger et al., 1998, Nat. Biotechnol. 16, 468-472; Berger et al., 1988, Gene 66, 1-10 b). For construction of stable CHO-ET1 and CHO-Triplet42 cell lines, CHO-Ki and CHO-TWIN1108 (Disclosed in PCT application no. 00/65080) were cotransfected with pWW35 and pZeoSV2 (invitrogen). CHO-ET11-SEAP was constructed by cotransfection of pWW38 and pSV2neo (Clontech) into CHO-ET11. The mixed populations were cloned using FACS-mediated single-cell-sorting (FACStar^Plus; Beckton Dickinson). For assessment of dose-response characteristics of PETR3-regulated gene expression, CHO-ET11-SEAP were cultured at cell densities of 50,000/ml for 48 h at various EM concentrations.
Varying the concentrations of EM used for induction could control the levels of PETR3-regulated gene expression. This was assessed using a stable CHO cell line (CHO-ET11-SEAP) which expresses PETR3-SEAP (pWW38) and stably contains also a constitutive ET1 expression vector (pWW35). […] Increasing EM concentration above 10 ng/ml leads to a gradual decrease in SEAP expression, with lowest SEAP expression levels at EM concentrations over 1000 ng/ml. […]

In data set [5] the target is T1, tTA / tetracycline-responsive promoter PhCMV*-1 (Escherichia coli, UniProt P04483).
T1 construct: expressed in transfected cells; host or cells: CHO-Triplet42 (from CHO-TWIN1108)
T1 sequence (P04483 whole entry, added parts left off): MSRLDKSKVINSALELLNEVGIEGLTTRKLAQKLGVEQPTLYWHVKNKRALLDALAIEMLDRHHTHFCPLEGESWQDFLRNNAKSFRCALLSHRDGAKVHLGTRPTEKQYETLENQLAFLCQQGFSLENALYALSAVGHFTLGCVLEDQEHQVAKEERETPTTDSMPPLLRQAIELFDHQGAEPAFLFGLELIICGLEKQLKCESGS
The data set can be described thus: SEAP assay in CHO-Triplet42 transfected with PhCMV*-1-SEAP (pMF111). The settings on record: CHO-Triplet42 + pMF111 (PhCMV*-1); antibiotic 2 μg/ml; 48 h. The class given is cell-based. Here is the method: as §1
Other antibiotics were eluted from antibiotic test discs (Mast Diagnostica GmbH, Reinfeld, Germany, or bioMérieux, Geneva Switzerland) in cell culture medium at 37° C. for 12 h to reach a final concentration of 30 μg/ml. All macrolide antibiotics were used at a 2 μg/ml concentration unless indicated otherwise.

Experimental findings from patent publication US7273723B2, “Antibiotic-based gene regulation system” (priority 2001, dated 2007) are described below.

A value given as a limit tells only on which side of the number the result lay.

In the case of `CC[C@H]1OC(=O)[C@H](C)[C@@H](O[C@H]2C[C@@](C)(OC)[C@@H](O)[C@H](C)O2)[C@H](C)[C@@H](O[C@@H]2O[C@H](C)C[C@H](N(C)C)[C@H]2O)[C@](C)(O)C[C@@H](C)C(=O)[C@H](C)[C@@H](O)[C@]1(C)O` [Erythromycin], in data set [1], the “Effects on CHO cell morphology and growth” value is “No deleterious effects”. The “SEAP activity [U/L] +Erythromycin [2 μg/ml]” value is reported as 35.7 ± 4.7 U/L in data set [2] (PETR-ON4 + ET4), 175.7 ± 6.2 U/L in data set [2] (PETR-ON4 + MphR(A)), 55.4 ± 1.8 U/L in data set [2] (PETR-ON8 + ET4) and 81.6 ± 4.3 U/L in data set [2] (PETR-ON8 + MphR(A)). Besides, the “Induction factor (expression in induced state to expression in repressed state)” value in data set [2] (PETR-ON4 repressed by MphR(A)) and in data set [2] (PETR-ON8 repressed by MphR(A)) was roughly 5 in each case. For the same molecule, the “CFP expression (fluorescence)” value in data set [3] is reported as “complete repression”. Also, the “EM concentration at which ET1/PETR3 is fully induced” value in data set [4] is less than 10 ng/mL. In addition, in data set [4], the “EM concentration at which ET1/PETR3 is repressed (lowest SEAP expression)” value is greater than 1000 ng/mL. Moreover, the “EM concentration window in which gene expression can be adjusted to different levels” value in data set [4] was 10 to 1000 ng/mL. Besides, the “SEAP activity [U/L]” value in data set [5] is listed as 195.1 ± 15.1 U/L.
